Measured values: ChEMBL document CHEMBL4613209, “Quinolone hybrids and their anti-cancer activities: An overview” (Eur J Med Chem, 2019)

The compounds below were run on HeLa (assay: Antiproliferative activity against human HeLa cells by CCK8 assay).
Format: functional, cell-based

Compound	IC50 [µM]
C[C@H]1COc2c(N3CCN(C)CC3)c(F)cc3c(=O)c(C(=O)OCc4cn(CCCCCCCC(=O)O)nn4)cn1c23	7.8 to 16.5
C[C@H]1COc2c(N3CCN(C)CC3)c(F)cc3c(=O)c(C(=O)OCc4cn(CCCCCC(=O)O)nn4)cn1c23	7.8 to 16.5
C[C@H]1COc2c(N3CCN(C)CC3)c(F)cc3c(=O)c(C(=O)OCc4cn(CCCCCCC(=O)O)nn4)cn1c23	7.8 to 16.5
O=C(CCCCCCC(=O)Nc1ccccc1)NO [VORINOSTAT]	2.9 to 6.4

The compounds below were run on HL-60 (assay: Cytotoxicity against human HL60 cells assessed as reduction in cell viability).
Format: functional, cell-based

Compound	IC50 [µM]
CCn1cc(-c2nnc(SC/C(=N/NC(N)=S)c3ccc(F)cc3)[nH]2)c(=O)c2cc(F)c(N3CCN(C)CC3)cc21	2.7 to 8.6
CCn1cc(-c2nnc(SC/C(=N/NC(N)=S)c3ccc(O)cc3)[nH]2)c(=O)c2cc(F)c(N3CCN(C)CC3)cc21	2.7 to 8.6
CCn1cc(-c2nnc(SC/C(=N/NC(N)=S)c3ccc(Cl)cc3)[nH]2)c(=O)c2cc(F)c(N3CCN(C)CC3)cc21	2.7 to 27.6
CCn1cc(-c2nnc(SC/C(=N/NC(N)=S)c3ccccc3OC)[nH]2)c(=O)c2cc(F)c(N3CCN(C)CC3)cc21	2.7 to 27.6
CCn1cc(-c2nnc(SC/C(=N/NC(N)=S)c3ccc(OC)cc3)[nH]2)c(=O)c2cc(F)c(N3CCN(C)CC3)cc21	2.7 to 27.6
CCn1cc(-c2nnc(SC/C(=N/NC(N)=S)c3ccc4c(c3)OCO4)[nH]2)c(=O)c2cc(F)c(N3CCN(C)CC3)cc21	2.7 to 27.6
CCn1cc(-c2nnc(SC/C(=N/NC(N)=S)c3ccccc3)[nH]2)c(=O)c2cc(F)c(N3CCN(C)CC3)cc21	2.7 to 27.6
CCn1cc(-c2nnc(SC/C(=N/NC(N)=S)c3ccc(OC)c(OC)c3)[nH]2)c(=O)c2cc(F)c(N3CCN(C)CC3)cc21	2.7 to 27.6
CCn1cc(-c2nnc(SC/C(=N/NC(N)=S)c3ccccc3O)[nH]2)c(=O)c2cc(F)c(N3CCN(C)CC3)cc21	2.7 to 8.6
CCn1cc(-c2nnc(SC/C(=N/NC(N)=S)c3ccc(O)c(OC)c3)[nH]2)c(=O)c2cc(F)c(N3CCN(C)CC3)cc21	2.7 to 8.6
CCn1cc(-c2nnc(SC/C(=N/NC(N)=S)c3ccc(C)cc3)[nH]2)c(=O)c2cc(F)c(N3CCN(C)CC3)cc21	2.7 to 27.6
CCn1cc(-c2nnc(SC/C(=N/NC(N)=S)c3ccc([N+](=O)[O-])cc3)[nH]2)c(=O)c2cc(F)c(N3CCN(C)CC3)cc21	2.7 to 27.6
CCn1cc(C(=O)O)c(=O)c2cc(F)c(N3CCN(C)CC3)cc21 [PEFLOXACIN]	> 100

The compounds below were run on SMMC-7721 (assay: Cytotoxicity against human SMMC7721 cells assessed as reduction in cell viability).
Format: functional, cell-based

Compound	IC50 [µM]
CCn1cc(-c2nnc(SC/C(=N/NC(N)=S)c3ccc(F)cc3)[nH]2)c(=O)c2cc(F)c(N3CCN(C)CC3)cc21	2.7 to 8.6
CCn1cc(-c2nnc(SC/C(=N/NC(N)=S)c3ccc(O)cc3)[nH]2)c(=O)c2cc(F)c(N3CCN(C)CC3)cc21	2.7 to 8.6
CCn1cc(-c2nnc(SC/C(=N/NC(N)=S)c3ccc(Cl)cc3)[nH]2)c(=O)c2cc(F)c(N3CCN(C)CC3)cc21	2.7 to 27.6
CCn1cc(-c2nnc(SC/C(=N/NC(N)=S)c3ccccc3OC)[nH]2)c(=O)c2cc(F)c(N3CCN(C)CC3)cc21	2.7 to 27.6
CCn1cc(-c2nnc(SC/C(=N/NC(N)=S)c3ccc(OC)cc3)[nH]2)c(=O)c2cc(F)c(N3CCN(C)CC3)cc21	2.7 to 27.6
CCn1cc(-c2nnc(SC/C(=N/NC(N)=S)c3ccc4c(c3)OCO4)[nH]2)c(=O)c2cc(F)c(N3CCN(C)CC3)cc21	2.7 to 27.6
CCn1cc(-c2nnc(SC/C(=N/NC(N)=S)c3ccccc3)[nH]2)c(=O)c2cc(F)c(N3CCN(C)CC3)cc21	2.7 to 27.6
CCn1cc(-c2nnc(SC/C(=N/NC(N)=S)c3ccc(OC)c(OC)c3)[nH]2)c(=O)c2cc(F)c(N3CCN(C)CC3)cc21	2.7 to 27.6
CCn1cc(-c2nnc(SC/C(=N/NC(N)=S)c3ccccc3O)[nH]2)c(=O)c2cc(F)c(N3CCN(C)CC3)cc21	2.7 to 8.6
CCn1cc(-c2nnc(SC/C(=N/NC(N)=S)c3ccc(O)c(OC)c3)[nH]2)c(=O)c2cc(F)c(N3CCN(C)CC3)cc21	2.7 to 8.6
CCn1cc(-c2nnc(SC/C(=N/NC(N)=S)c3ccc(C)cc3)[nH]2)c(=O)c2cc(F)c(N3CCN(C)CC3)cc21	2.7 to 27.6
CCn1cc(-c2nnc(SC/C(=N/NC(N)=S)c3ccc([N+](=O)[O-])cc3)[nH]2)c(=O)c2cc(F)c(N3CCN(C)CC3)cc21	2.7 to 27.6
CCn1cc(C(=O)O)c(=O)c2cc(F)c(N3CCN(C)CC3)cc21 [PEFLOXACIN]	> 100

These compounds were tested on NCI-H460 (assay: Cytotoxicity against human NCI-H460 cells assessed as reduction in cell viability by SRB assay).
Format: functional, cell-based

Compound	IC50 [µM]
O=c1[nH]c2ccccc2c2n[nH]c(/C=C/c3ccccc3)c12	0.16 to 0.3
O=c1[nH]c2ccccc2c2n[nH]c(-c3cn(-c4ccccc4)nc3-c3ccccc3)c12	0.16 to 0.3
O=c1[nH]c2ccccc2c2nn(-c3ccccc3)c(-c3cn(-c4ccccc4)nc3-c3ccccc3)c12	0.16 to 0.3
O=c1[nH]cc(F)c(=O)[nH]1 [FLUOROURACIL]	0.54

These compounds were tested on U-251 (assay: Cytotoxicity against human U251 cells assessed as reduction in cell viability by SRB assay).
Format: functional, cell-based

Compound	IC50 [µM]
O=c1[nH]c2ccccc2c2n[nH]c(/C=C/c3ccccc3)c12	0.16 to 0.3
O=c1[nH]c2ccccc2c2n[nH]c(-c3cn(-c4ccccc4)nc3-c3ccccc3)c12	0.16 to 0.3
O=c1[nH]c2ccccc2c2nn(-c3ccccc3)c(-c3cn(-c4ccccc4)nc3-c3ccccc3)c12	0.16 to 0.3
O=c1[nH]cc(F)c(=O)[nH]1 [FLUOROURACIL]	0.54

These compounds were tested on PC-3 (assay: Antiproliferative activity against human PC3 cells by CCK8 assay).
Format: functional, cell-based

Compound	IC50 [µM]
C[C@H]1COc2c(N3CCN(C)CC3)c(F)cc3c(=O)c(C(=O)OCc4cn(CCCCCCCC(=O)O)nn4)cn1c23	7.8 to 16.5
C[C@H]1COc2c(N3CCN(C)CC3)c(F)cc3c(=O)c(C(=O)OCc4cn(CCCCCC(=O)O)nn4)cn1c23	7.8 to 16.5
C[C@H]1COc2c(N3CCN(C)CC3)c(F)cc3c(=O)c(C(=O)OCc4cn(CCCCCCC(=O)O)nn4)cn1c23	7.8 to 16.5

These compounds were tested on MCF-10A (assay: Antiproliferative activity against human MCF10A cells by CCK8 assay).
Format: cell-based

Compound	IC50 [µM]
C[C@H]1COc2c(N3CCN(C)CC3)c(F)cc3c(=O)c(C(=O)OCc4cn(CCCCCCCC(=O)O)nn4)cn1c23	> 100
C[C@H]1COc2c(N3CCN(C)CC3)c(F)cc3c(=O)c(C(=O)OCc4cn(CCCCCC(=O)O)nn4)cn1c23	> 100
C[C@H]1COc2c(N3CCN(C)CC3)c(F)cc3c(=O)c(C(=O)OCc4cn(CCCCCCC(=O)O)nn4)cn1c23	> 100

What follows are compounds tested on MCF7 (assay: Antiproliferative activity against human MCF7 cells by CCK8 assay).
Format: functional, cell-based

Compound	IC50 [µM]
C[C@H]1COc2c(N3CCN(C)CC3)c(F)cc3c(=O)c(C(=O)OCc4cn(CCCCCCCC(=O)O)nn4)cn1c23	7.8 to 16.5
C[C@H]1COc2c(N3CCN(C)CC3)c(F)cc3c(=O)c(C(=O)OCc4cn(CCCCCC(=O)O)nn4)cn1c23	7.8 to 16.5
C[C@H]1COc2c(N3CCN(C)CC3)c(F)cc3c(=O)c(C(=O)OCc4cn(CCCCCCC(=O)O)nn4)cn1c23	7.8 to 16.5

These compounds were tested on HepG2 (assay: Antiproliferative activity against human HepG2 cells by CCK8 assay).
Format: functional, cell-based

Compound	IC50 [µM]
C[C@H]1COc2c(N3CCN(C)CC3)c(F)cc3c(=O)c(C(=O)OCc4cn(CCCCCCCC(=O)O)nn4)cn1c23	7.8 to 16.5
C[C@H]1COc2c(N3CCN(C)CC3)c(F)cc3c(=O)c(C(=O)OCc4cn(CCCCCC(=O)O)nn4)cn1c23	7.8 to 16.5
C[C@H]1COc2c(N3CCN(C)CC3)c(F)cc3c(=O)c(C(=O)OCc4cn(CCCCCCC(=O)O)nn4)cn1c23	7.8 to 16.5

What follows are compounds tested on L1210 (assay: Cytotoxicity against mouse L1210 cells assessed as reduction in cell viability).
Format: functional, cell-based

Compound	IC50 [µM]
CCn1cc(-c2nnc(SC/C(=N/NC(N)=S)c3ccc(F)cc3)[nH]2)c(=O)c2cc(F)c(N3CCN(C)CC3)cc21	2.7 to 8.6
CCn1cc(-c2nnc(SC/C(=N/NC(N)=S)c3ccc(O)cc3)[nH]2)c(=O)c2cc(F)c(N3CCN(C)CC3)cc21	2.7 to 8.6
CCn1cc(-c2nnc(SC/C(=N/NC(N)=S)c3ccc(Cl)cc3)[nH]2)c(=O)c2cc(F)c(N3CCN(C)CC3)cc21	2.7 to 27.6
CCn1cc(-c2nnc(SC/C(=N/NC(N)=S)c3ccccc3OC)[nH]2)c(=O)c2cc(F)c(N3CCN(C)CC3)cc21	2.7 to 27.6
CCn1cc(-c2nnc(SC/C(=N/NC(N)=S)c3ccc(OC)cc3)[nH]2)c(=O)c2cc(F)c(N3CCN(C)CC3)cc21	2.7 to 27.6
CCn1cc(-c2nnc(SC/C(=N/NC(N)=S)c3ccc4c(c3)OCO4)[nH]2)c(=O)c2cc(F)c(N3CCN(C)CC3)cc21	2.7 to 27.6
CCn1cc(-c2nnc(SC/C(=N/NC(N)=S)c3ccccc3)[nH]2)c(=O)c2cc(F)c(N3CCN(C)CC3)cc21	2.7 to 27.6
CCn1cc(-c2nnc(SC/C(=N/NC(N)=S)c3ccc(OC)c(OC)c3)[nH]2)c(=O)c2cc(F)c(N3CCN(C)CC3)cc21	2.7 to 27.6
CCn1cc(-c2nnc(SC/C(=N/NC(N)=S)c3ccccc3O)[nH]2)c(=O)c2cc(F)c(N3CCN(C)CC3)cc21	2.7 to 8.6
CCn1cc(-c2nnc(SC/C(=N/NC(N)=S)c3ccc(O)c(OC)c3)[nH]2)c(=O)c2cc(F)c(N3CCN(C)CC3)cc21	2.7 to 8.6
CCn1cc(-c2nnc(SC/C(=N/NC(N)=S)c3ccc(C)cc3)[nH]2)c(=O)c2cc(F)c(N3CCN(C)CC3)cc21	2.7 to 27.6
CCn1cc(-c2nnc(SC/C(=N/NC(N)=S)c3ccc([N+](=O)[O-])cc3)[nH]2)c(=O)c2cc(F)c(N3CCN(C)CC3)cc21	2.7 to 27.6
CCn1cc(C(=O)O)c(=O)c2cc(F)c(N3CCN(C)CC3)cc21 [PEFLOXACIN]	> 100

What follows are compounds tested on A549 (assay: Antiproliferative activity against human A549 cells by CCK8 assay).
Format: functional, cell-based

Compound	IC50 [µM]
C[C@H]1COc2c(N3CCN(C)CC3)c(F)cc3c(=O)c(C(=O)OCc4cn(CCCCCCCC(=O)O)nn4)cn1c23	7.8 to 16.5
C[C@H]1COc2c(N3CCN(C)CC3)c(F)cc3c(=O)c(C(=O)OCc4cn(CCCCCC(=O)O)nn4)cn1c23	7.8 to 16.5
C[C@H]1COc2c(N3CCN(C)CC3)c(F)cc3c(=O)c(C(=O)OCc4cn(CCCCCCC(=O)O)nn4)cn1c23	7.8 to 16.5
O=C(CCCCCCC(=O)Nc1ccccc1)NO [VORINOSTAT]	2.9 to 6.4

What follows are compounds tested on HCT-116 (assay: Cytotoxicity against human HCT116 cells assessed as reduction in cell viability by SRB assay).
Format: functional, cell-based

Compound	IC50 [µM]
O=c1[nH]c2ccccc2c2n[nH]c(/C=C/c3ccccc3)c12	0.16 to 0.3
O=c1[nH]c2ccccc2c2n[nH]c(-c3cn(-c4ccccc4)nc3-c3ccccc3)c12	0.16 to 0.3
O=c1[nH]c2ccccc2c2nn(-c3ccccc3)c(-c3cn(-c4ccccc4)nc3-c3ccccc3)c12	0.16 to 0.3
O=c1[nH]cc(F)c(=O)[nH]1 [FLUOROURACIL]	0.54
